This note sets out measurements from US20170320939A1, “COLL2-1 PEPTIDE AND ITS NITRATED FORM AS THERAPEUTIC TARGETS FOR OSTEOARTHRITIS TREATMENT” (Université de Liège, priority 2014, published 2017).

For assay [1], the system named is IL-8. As to the kind of experiment: IL-8 mRNA expression by Real Time PCR in OA synovial fibroblast cells. In kind it is cell-based, human. Conditions: 24 hours. How it is done: 1.3 Treatment of synovial fibroblast cells. Cells were seeded into a six-well plate at the density of 2×10^5 cells/well in 2 ml of CM. When the cells reached confluence, the CM was replaced with 1% serum medium for 24 h to keep the cells quiescent. Cells were incubated for 24 hours with or without peptides Coll2-1 (^108HRGYPGLDG^116; 0.45 and 4.5 nmol) or Coll2-1NO2 (^108HRGYPGLDG-NO2^116; 4 and 40 pmol) at a range of concentrations found in the blood of osteoarthritic patients.
1.4 RNA extraction and Real Time Reverse Transcriptase-Polymerase Chain Reaction (RT PCR). Total RNA were extracted using the RNeasy Mini Kit (Qiagen, Netherlands) and were reverse transcribed with SuperScript III Reverse Transcriptase (Invitrogen, Belgium) according to the manufacturer's instructions. The cDNAs were quantified by real-time quantitative PCR using the Rotor Gene instrument (Qiagen, Venlo, Netherlands) and the SYBR Premix Ex Taq kit (Takara, Verviers, Belgium). The level of gene expression was determined by interpolation with a standard curve. To standardize mRNA levels, HPRT, a house keeping gene, was amplified as an internal control. The oligonucleotide primers sequences were as follow: HPRT forward, 5′-[…]-3′ (SEQ ID NO: 2); HPRT reverse, 5′-TGCCTGACCAAGGAAAGC-3′ (SEQ ID NO: 3); TSP-1 forward, 5′-CAGACCGCATTGGAGATAC-3′ (SEQ ID NO: 4); TSP-1 reverse, 5′-[…]-3′ (SEQ ID NO: 5); VEGF forward, 5′-TGCCTTGCTGCTCTAC-3′ (SEQ ID NO: 6); VEGF reverse, 5′-CACACAGGATGGCTTGAA-3′ (SEQ ID NO: 7); IL-6 forward, 5′-AAACAAATTCGGTACATCCTCG-3′ (SEQ ID NO: 8); IL-6 reverse, 5′-CCA GGC AAG TCT CCT CAT-3′ (SEQ ID NO: 9); IL-8 forward, 5′-GGAACCATCTCACTGTGTGTAA-3′ (SEQ ID NO: 10); IL-8 reverse, 5′-TGGAAAGGTTTGGAGTATGTCT-3′ (SEQ ID NO: 11).
In general terms: In qPCR the cycle at which signal appears reflects the starting amount.

Assay [2] has as its system female Lewis rats. As to the kind of experiment: In-vivo study, I.A. injection compared to SCW (streptococcal cell walls) model. The settings on record: for global histological score, right knee (injected): not significant. The protocol:
An in-vivo study was performed to evaluate the potential immunizing effect of Coll2-1 peptide. This effect was evaluated in comparison with two validated models of rheumatoid arthritis: CIA (Collagen induced arthritis) and SCW (Streptococcal cell walls). The peptide has been injected once subcutaneous, at the base of the tail (S.C.—evaluation of systemic inflammation) or intra-articular (I.A.—evaluation of mono-articular inflammation) in female Lewis rats. Naïve controls (saline) were considered. Animals were euthanized 21 or 28 days after injection.
All animals (n=108 females; 96.0-129.7 gr) included in the study were identified by a unique chip. They were randomly distributed into 8 study groups (n=16/group except nave controls n=6/group, n=8/each time point) before induction (DO) based on their body weight (FIG. 1). • Injected controls (2 groups) • Group 1: bovin type II collagen (CIA)—S.C. (n=16) • Group 2: streptococcal cell wail (SCW)—I.A. (n=16) • Test groups (4 groups) • Group 3: Peptide dose 200 μg/100 μl—S.C. (n=16) • Group 4: Peptide dose 20 μg/100 μl—S.C. (n=16) • Group 5: Peptide dose 5 μg/50 μl—I.A. (n=16) • Group 6: Peptide dose 0.5 μg/50 μl—I.A. (n=16) • Naïve controls (2 groups) • Group 7: saline S.C. (n=6) • Group 8: saline I.A. (n=6)
Two injection ways were chosen to evaluate the potential effect of the peptide: intra-articular (I.A.) and subcutaneous (S.C.), two route classically used in the art.
Coll2-1 peptide was administered either I.A. under a 50 μL volume into the right knee or S.C. under a 100 μL volume at the base of the tail.
SCW was administered I.A. into the right knee under a 50 μL volume. Bovine type II collagen (CIA) was administered under 100 μL volume at the base of the tail.
Two doses of the Coll2-1 peptide were tested in both conditions.
It was administered I.A. at 5 and 0.5 μg under 50 μL
Coll2-1 peptide was administered once (DO).
Joint was considered arthritic when significant signs of redness and/or swelling was noted. Each paw was evaluated with a visual score (0-3) • 0: normal, no joint inflammation • 1: large joint inflammation • 2: medium joint inflammation • 3: small joint (distal) inflammation
A set of 4 values were recorded on each evaluation day. The 4 values were summed for analysis.
Right and left knees diameter were measured using a digital caliper.
Animals were euthanized 21 or 28 days after injection (D0). They were anesthetized with a subcutaneous injection of a Ketamin/Medetomidine mix and further euthanized by exsanguination.
Both entire knees from each animal were processed for histological analysis, They were decalcified in a HCl/EDTA mix (DC2, Qpath, VWR Belgium) for the appropriate time before inclusion in paraffin. Three frontal sections (5 μm) of each compartment were done 200 μm apart in the weight bearing zone using a microtome. Slides were stained according to a standard Safranin-O/Fast green protocol.
Slides were evaluated under a light microscope. Each slide was score for: • Infiltration of inflammatory cells in synovial tissue (0-3) • Inflammatory cells in the joint cavity (exudate) (0-3) • Cartilage proteoglycan depletion (0-3) • Loss of articular cartilage (0-3) • Bone erosion (0-3).
Infiltration of inflammatory cells in synovial tissue and inflammatory cells in the joint cavity were considered together (sum of the scores) as inflammatory parameters for the analysis of the detailed criteria.
Statistical analysis was performed with the appropriate test using GraphPad. • Visual score and evaluations (knee diameter measurements) were analyzed with a two way ANOVA followed, if positive, by Tukey's multiple comparison test. Graphs represented the mean of each group at each evaluated time point. • Histological scores were analyzed with a Kruskal Wallis for non-parametric values followed, if positive, by a Dunn's multiple comparison test. Graphs presented as box and whisker plots. Exact p values were provided and asterisks representation were also performed.

Consider HRGYPGLDG [Coll2-1], for which, in assay [1] (Coll2-1 at 0.45 nmol), the IL8 gene expression result is “dose-dependently increased”. Moreover, in assay [1] (Coll2-1 at 4.5 nmol), the IL8 gene expression result is “dose-dependently increased”. In assay [1] (increasing concentrations: Coll2-1 (0.45 and 4.5 nmol) or Coll2-1NO2 (4 and 40 pmol)), the IL-8 expression entry is given as “increased”. Further, in assay [2] (Coll2-1 0.5 μg I.A. (Gr6)), the “cartilage degradation score, left knee” value is given as “significant increase”; the “inflammatory score, left knee, versus Gr8” value is recorded as “significant increase”; the “matrix proteoglycan loss score, left knee, versus Gr8” value was “significant increase”; the “global histological score, right knee (injected)” value was “intermediate between Gr8 (saline) and Gr2 (SCW)”. Further, the “right knee diameter, difference versus Gr8 (saline)” value in assay [2] (Coll2-1 0.5 μg I.A. (Gr6), D3) is reported as “statistically different”. Moreover, in assay [2] (Coll2-1 0.5 μg I.A. (Gr6), D28), the “arthritis visual score, difference versus saline (Gr8)” value is given as “statistically different”; the “cartilage degradation score, right knee, versus Gr8” value is “significant increase”; the “global histological score, left knee, difference versus Gr2” value is listed as “not significant except for Gr6”; the “global histological score, left knee, difference versus Gr8” value is on record as “not significant except for Gr6”. Moreover, in assay [2] (Coll2-1 5 μg I.A. (Gr5)), the “global histological score, left knee, differences” value is “not significant”; the “global histological score, right knee (injected)” value was “intermediate between Gr8 (saline) and Gr2 (SCW)”. Moreover, in assay [2] (Coll2-1 5 μg I.A. (Gr5), D17), the “arthritis visual score, difference versus Gr 6 (Coll2-1 peptide 0.5 μg)” value is recorded as “statistically different”; the “arthritis visual score, difference versus saline (Gr8)” value is listed as “statistically different”; the “left knee diameter, difference versus Gr2 (SCW)” value was “statistically different”; the “left knee diameter, difference versus Gr8 (saline)” value was “statistically different”. For the same sequence, the “right knee diameter, difference versus Gr8 (saline)” value in assay [2] (Coll2-1 5 μg I.A. (Gr5), D17) is listed as “statistically significance”. Besides, the “arthritis visual score, difference versus SCW (Gr2)” value in assay [2] (Coll2-1 5 μg I.A. (Gr5), D24) is on record as “statistically different”. In addition, the “right knee diameter, difference Gr5 versus Gr6” value in assay [2] (Coll2-1 5 μg versus 0.5 μg I.A., D17) is “statistically different”. Besides, the “inflammatory criteria, right knee” value in assay [2] (Coll2-1 peptide I.A., D28, not statistically significant) was “intermediate increase”. In assay [2] (SCW arthritis model, I.A. injection, D21 and D28), the “histological score (conclusion)” value is “intermediate scores”. Besides, in assay [2] (single I.A. injection into the right knee, D0 to D28), the arthritis visual score entry is “induced an increase”.
